{"source": "patent US6187905A", "about": "“Alpha-ketoamide derivatives” (Hoffmann-La Roche Inc., priority 1998, dated 2001)", "note": "*1 amine or outer side, *2 acyl side, *3 side chain or, on linkers, in order; H or OH if unused. Where a SMILES comes first, the peptide text is derived from it. [ ]: non-standard residue; d: D form. The star is where a group is joined. Phe(2-Me) = Cc1ccccc1C[C@H](N)C(=O)O; NleCONH2 = CCCC[C@H](N*)C(=O)C(N)=O; Suc = O=C(CCC(=O)[*:2])[*:1]; Tle = CC(C)(C)[C@H](N)C(=O)O", "data": [{"biological_target": "HCV proteinase (Hepatitis C virus genotype 1a, UniProt P27958)", "sequence (P27958 1027-1208)": "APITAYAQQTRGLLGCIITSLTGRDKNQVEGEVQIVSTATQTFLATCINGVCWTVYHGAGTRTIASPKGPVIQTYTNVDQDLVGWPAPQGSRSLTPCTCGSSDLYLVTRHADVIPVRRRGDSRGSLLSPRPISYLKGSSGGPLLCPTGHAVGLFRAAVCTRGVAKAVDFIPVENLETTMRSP", "assay": "HCV proteinase inhibition assay (described in WO 98/22496)", "format": "biochemical", "conditions": "not given", "from_the_text": "(§1) As mentioned earlier, the compounds of formula I and their salts are inhibitors of proteases of viral origin. For example, all compounds of formula 1 are inhibitors against HCV protease.", "units": {"IC50": "nM"}, "values": [{"smiles": "CC[C@H](NC(=O)C(=O)C(CC(F)(F)F)NC(=O)[C@H](CC(C)C)NC(=O)[C@@H](NC(=O)[C@H](Cc1ccccc1C)NC(=O)[C@H](CCC(=O)O)NC(=O)[C@H](CC(=O)O)NC(=O)CCC(=O)O)C(C)(C)C)c1ccccc1", "note": "(mixture of isomers) [B, 3(RS)-[[N-[N-[N-[N-[N-(3-Carboxypropionyl)-L-α-aspartyl]-L-α-glutamyl]-2-methyl-L-phenylalanyl]-3-methyl-L-valyl]-L-leucyl]amino]-5,5,5-trifluoro-2-oxo-N-(1(S)-phenylpropyl)valeramide]", "IC50": 7}, {"smiles": "Cc1ccccc1C[C@H](NC(=O)[C@H](CCC(=O)O)NC(=O)[C@H](CC(=O)O)NC(=O)CCC(=O)O)C(=O)N[C@H](C(=O)N[C@@H](CC(C)C)C(=O)NC(CC(F)(F)F)C(=O)C(=O)N[C@@H](C)c1ccccc1)C(C)(C)C", "note": "(mixture of isomers) [G, 3(RS)-[[N-[N-[N-[N-[N-(3-Carboxypropionyl)-L-α-aspartyl]-L-α-glutamyl]-2-methyl-L-phenylalanyl]-3-methyl-L-valyl]-L-leucyl]amino]-5,5,5-trifluoro-N-(α(S)-methylbenzyl)-2-oxovaleramide]", "IC50": 4}, {"smiles": "Cc1ccccc1C[C@H](NC(=O)[C@H](CCC(=O)O)NC(=O)[C@H](CC(=O)O)NC(=O)CCC(=O)O)C(=O)N[C@H](C(=O)N[C@@H](CC(C)C)C(=O)NC(CC(F)(F)F)C(=O)C(=O)NCc1ccc(O)cc1)C(C)(C)C", "note": "(mixture of isomers) [E, 3(RS)-[[N-[N-[N-[N-[N-(3-Carboxypropionyl)-L-α-aspartyl]-L-α-glutamyl]-2-methyl-L-phenylalanyl]-3-methyl-L-valyl]-L-leucyl]amino]-5,5,5-trifluoro-N-(4-hydroxybenzyl)-2-oxovaleramide]", "IC50": 4}, {"smiles": "Cc1ccccc1C[C@H](NC(=O)[C@H](CCC(=O)O)NC(=O)[C@H](CC(=O)O)NC(=O)CCC(=O)O)C(=O)N[C@H](C(=O)N[C@@H](CC(C)C)C(=O)NC(CC(F)(F)F)C(=O)C(N)=O)C(C)(C)C", "note": "(single isomer, unassigned) [D, 3(R or S)-[[N-[N-[N-[N-[N-(3-Carboxypropionyl)-L-α-aspartyl]-L-α-glutamyl]-2-methyl-L-phenylalanyl]-3-methyl-L-valyl]-L-leucyl]amino]-5,5,5-trifluoro-2-oxovaleramide]", "IC50": 7}, {"smiles": "CCCC[C@H](NC(=O)[C@H](CC(C)C)NC(=O)[C@@H](NC(=O)[C@H](Cc1ccccc1C)NC(=O)[C@H](CCC(=O)O)NC(=O)[C@H](CC(=O)O)NC(=O)CCC(=O)O)C(C)(C)C)C(=O)C(N)=O", "note": "[J, 3(S)-[[N-[N-[N-[N-[N-(3-Carboxypropionyl)-L-α-aspartyl]-L-α-glutamyl]-2-methyl-L-phenylalanyl]-3-methyl-L-valyl]-L-leucyl]amino]-2-oxoheptanamide] (Suc-DE[Phe(2-Me)][Tle]L-NleCONH2)", "IC50": 11.5}, {"smiles": "Cc1ccccc1C[C@H](NC(=O)[C@H](CCC(=O)O)NC(=O)[C@H](CC(=O)O)NC(=O)CCC(=O)O)C(=O)N[C@H](C(=O)N[C@@H](CC(C)C)C(=O)NC(CC(F)(F)F)C(=O)C(=O)N[C@H](c1ccccc1)C(C)C)C(C)(C)C", "note": "(mixture of isomers) [C, 3(RS)-[[N-[N-[N-[N-[N-(3-Carboxypropionyl)-L-α-aspartyl]-L-α-glutamyl]-2-methyl-L-phenylalanyl]-3-methyl-L-valyl]-L-leucyl]amino]-5,5,5-trifluoro-N-(2-methyl-1(S)-phenylpropyl)-2-oxovaleramide]", "IC50": 7}, {"smiles": "Cc1ccccc1C[C@H](NC(=O)[C@H](CCC(=O)O)NC(=O)[C@H](CC(=O)O)NC(=O)CCC(=O)O)C(=O)N[C@H](C(=O)N[C@@H](CC(C)C)C(=O)NC(CC(F)(F)F)C(=O)C(=O)NCc1ccccc1)C(C)(C)C", "note": "(mixture of isomers) [H, N-Benzyl-3(RS)-[[N-[N-[N-[N-[N-(3-carboxypropionyl)-L-α-aspartyl]-L-α-glutamyl]-2-methyl-L-phenylalanyl]-3-methyl-L-valyl]-L-leucyl]amino]-5,5,5-trifluoro-2-oxovaleramide]", "IC50": 4}, {"smiles": "COc1cccc(CNC(=O)C(=O)C(CC(F)(F)F)NC(=O)[C@H](CC(C)C)NC(=O)[C@@H](NC(=O)[C@H](Cc2ccccc2C)NC(=O)[C@H](CCC(=O)O)NC(=O)[C@H](CC(=O)O)NC(=O)CCC(=O)O)C(C)(C)C)c1", "note": "(mixture of isomers) [F, 3(RS)-[[N-[N-[N-[N-[N-(3-Carboxypropionyl)-L-α-aspartyl]-L-α-glutamyl]-2-methyl-L-phenylalanyl]-3-methyl-L-valyl]-L-leucyl]amino]-5,5,5-trifluoro-N-(3-methoxybenzyl)-2-oxovaleramide]", "IC50": 6}]}, {"biological_target": "HCV proteinase (Hepatitis C virus genotype 1a, UniProt P27958)", "assay": "HCV proteinase inhibition assay (described in WO 98/22496)", "format": "biochemical", "conditions": "read-out: HCV proteinase IC50", "from_the_text": "as §1", "units": {"IC50": "nM"}, "values": [{"smiles": "Cc1ccccc1C[C@H](NC(=O)[C@H](CCC(=O)O)NC(=O)[C@H](CC(=O)O)NC(=O)CCC(=O)O)C(=O)N[C@H](C(=O)N[C@@H](CC(C)C)C(=O)NC(CC(F)(F)F)C(=O)C(=O)N[C@@H](C)c1ccc2ccccc2c1)C(C)(C)C", "note": "(mixture of isomers) [I]", "IC50": 8}, {"smiles": "Cc1ccccc1C[C@H](NC(=O)[C@H](CCC(=O)O)NC(=O)[C@H](CC(=O)O)NC(=O)CCC(=O)O)C(=O)N[C@H](C(=O)N[C@@H](CC(C)C)C(=O)NC(CC(F)(F)F)C(=O)C(=O)N[C@@H](C)c1ccc2ccccc2c1)C(C)(C)C", "note": "(mixture of isomers) [A]", "IC50": 4}]}]}
